The source made the active and inactive calls. No cut-off for these calls is given here.
Legend:
Assay type in all cases: functional, organism-based
[1] = tested on: Acinetobacter; test: Antibacterial activity against heteroresistant Acinetobacter baumannii-calcoaceticus complex isolated from total cumulative patients preexposed to 325 to 900 mg of drug after 20 to 24 hrs by broth microdilution method
[2] = tested on: Acinetobacter; test: Antimicrobial activity against heteroresistant-Acinetobacter baumannii-calcoaceticus complex isolated from patients after 20 to 24 hrs by broth microdilution method
[3] = tested on: Acinetobacter; test: Antimicrobial activity against susceptible-Acinetobacter baumannii-calcoaceticus complex isolated from patients after 20 to 24 hrs by broth microdilution method
[4] = tested on: Acinetobacter; test: Antibacterial activity against Acinetobacter baumannii-calcoaceticus complex assessed as colony forming unit at 8 ug/ml after 20 to 24 hrs by broth microdilution method
[5] = tested on: Acinetobacter; test: Antibacterial activity against heteroresistant Acinetobacter baumannii-calcoaceticus complex isolated from total cumulative patients preexposed to 325 to 900 mg of drug at 4 ug/ml after 20 to 24 hrs by broth microdilution method
[6] = tested on: Acinetobacter; test: Antibacterial activity against heteroresistant Acinetobacter baumannii-calcoaceticus complex isolated from total cumulative patients preexposed to 325 to 900 mg of drug at 2 ug/ml after 20 to 24 hrs by broth microdilution method
[7] = tested on: Acinetobacter; test: Antibacterial activity against heteroresistant Acinetobacter baumannii-calcoaceticus complex isolated from total cumulative patients preexposed to 325 to 900 mg of drug measured after two passages with 8 ug/ml of drug on sheep blood plates by broth microdilution method
[8] = tested on: Acinetobacter; test: Antibacterial activity against heteroresistant Acinetobacter baumannii-calcoaceticus complex isolated from total cumulative patients preexposed to 325 to 900 mg of drug assessed as colony forming unit at 8 ug/ml after 20 to 24 hrs by broth microdilution method

Compound	Activity [1]	MIC [2] [µg/mL]	MIC [3] [µg/mL]	Activity [4] [%]	Activity [5]	Activity [6]	MIC [7] [µg/mL]	Activity [8] [%]
CC1(C)[C@H](C(=O)O)N2C(=O)C[C@H]2S1(=O)=O	Active	–	–	–	–	–	–	–
COLISTIN	–	> 8	< 1	5.3e-05	inactive	inactive	> 16	0.000211
GENTAMICIN	Active	–	–	–	–	–	–	–

Reference: ChEMBL document CHEMBL1151457, “Colistin heteroresistance in acinetobacter and its association with previous colistin therapy” (Antimicrob Agents Chemother, 2008)
